Results from EPA's ToxRefDB 2.

What was measured:
rat [1] = conditions: Multigenerational reproductive toxicity study, other, Oral, Water, dose end: 2 generation
rabbit [2] = conditions: Prenatal developmental toxicity study, new zealand white, Oral, Gavage/Intubation, dose end: 27 GD, group: maternal
dog [3] = conditions: Sub-acute repeat dose toxicity, beagle, Oral, Water, dose end: 28 day, group: systemic
rat [4] = conditions: Combined chronic toxicity/carcinogenicity, sprague dawley, Oral, Water, dose end: 104 week, group: systemic
rabbit [5] = conditions: Prenatal developmental toxicity study, new zealand white, Oral, Gavage/Intubation, dose end: 19 GD
rat [6] = conditions: Multigenerational reproductive toxicity study, sprague dawley, Oral, Water, dose end: 2 generation
rat [7] = conditions: Combined chronic toxicity/carcinogenicity, sprague dawley, Oral, Feed, dose end: 24 month, group: systemic
mouse [8] = conditions: Carcinogenicity, cd1, Oral, Feed, dose end: 18 month, group: systemic
rat [9] = conditions: Subchronic oral toxicity in rodents, other, Feed, dose end: 90 day, group: systemic
dog [10] = conditions: Chronic toxicity; beagle; Oral; Feed; dose end: 52 week; group: systemic; systemic / pathology microscopic / eye / [other] + systemic / pathology microscopic / eye / cataract + systemic / pathology microscopic / …
dog [11] = conditions: Subchronic oral toxicity in nonrodent, beagle, Feed, dose end: 91 day, group: systemic
rat [12] = conditions: Multigenerational reproductive toxicity study, other, Oral, Feed, dose end: 2 generation
mouse [13] = conditions: Subchronic oral toxicity in rodents, cd1, Feed, dose end: 13 week, group: systemic
rat [14] = conditions: Prenatal developmental toxicity study, wistar, Oral, Gavage/Intubation, dose end: 19 GD
rat [15] = conditions: Subchronic oral toxicity in rodents, wistar, Feed, dose end: 90 day, group: systemic
dog [16] = conditions: Subchronic oral toxicity in nonrodent, beagle, Capsule, dose end: 90 day, group: systemic
rat [17] = conditions: Subchronic oral toxicity in rodents, wistar, Feed, dose end: 28 day, group: systemic
rat [18] = conditions: Multigenerational reproductive toxicity study, Oral, Feed, dose end: 3 generation, group: offspring
[19] = group: offspring, systemic / in life observation / body weight / offspring (pup) weight + systemic / organ weight / kidney / absolute + systemic / organ …
[20] = group: parental, systemic / in life observation / water consumption / water consumption
[21] = group: parental, systemic / in life observation / water consumption / water consumption + systemic / in life observation / body weight / body weight + …
[22] = group: reproductive, reproductive / reproductive performance / fertility / fertility
[23] = systemic / in life observation / body weight / body weight + systemic / in life observation / food consumption / food consumption + systemic…
[24] = systemic / pathology microscopic / nose / inflammation
[25] = systemic / pathology microscopic / nose / inflammation + systemic / pathology microscopic / stomach / hypertrophy
[26] = systemic / in life observation / water consumption / water consumption
[27] = group: developmental, developmental / developmental malformation / aortic arch / dilated + developmental / developmental malformation / bone / [other] + …
[28] = group: maternal, systemic / in life observation / body weight / body weight gain + systemic / in life observation / clinical signs / defecation + systemic / …
[29] = group: offspring, reproductive / offspring survival early / dead fetuses / dead fetuses + reproductive / offspring survival early / live fetuses / live …
[30] = group: parental, systemic / in life observation / food consumption / food consumption + systemic / in life observation / water consumption / water …
[31] = group: reproductive, reproductive / reproductive performance / dystocia / dystocia
[32] = group: reproductive, reproductive / reproductive performance / dystocia / dystocia + reproductive / reproductive performance / postimplantation loss / …
[33] = systemic / hematology / anemia / anemia - hemolytic + systemic / in life observation / body weight / body weight gain + systemic / …
[34] = systemic / pathology microscopic / liver / fatty change + systemic / pathology microscopic / liver / necrosis + systemic / pathology …
[35] = systemic / clinical chemistry / globulins / globulins
[36] = systemic / hematology / erythrocyte (rbc) count differential / erythrocyte (rbc) + systemic / hematology / hemoglobin (hgb) / hemoglobin (…
[37] = systemic / hematology / anemia / anemia - nos + systemic / hematology / erythrocyte (rbc) count differential / erythrocyte (rbc) + systemic…
[38] = group: offspring, systemic / in life observation / body weight / litter weight + developmental / offspring survival late / viability index / viability index
[39] = group: parental, systemic / clinical chemistry / alanine aminotransferase (alt/sgpt) / alanine aminotransferase (alt/sgpt)
[40] = group: parental, systemic / clinical chemistry / sorbitol dehydrogenase / sorbitol dehydrogenase + systemic / clinical chemistry / alanine aminotransferase (…
[41] = systemic / hematology / platelet / platelet
[42] = group: developmental, developmental / developmental malformation / bone / full supernumerary
[43] = group: maternal, systemic / organ weight / liver / absolute + systemic / pathology microscopic / kidney / vacuolization + systemic / pathology microscopic / …
[44] = systemic / pathology microscopic / kidney / hyaline droplet
[45] = systemic / pathology microscopic / kidney / hyaline droplet + systemic / clinical chemistry / alanine aminotransferase (alt/sgpt) / alanine …
[46] = systemic / clinical chemistry / protein / protein + systemic / in life observation / clinical signs / vomiting + systemic / organ weight / …
[47] = systemic / clinical chemistry / calcium / calcium + systemic / clinical chemistry / phosphorus / phosphorus + systemic / pathology …
[48] = systemic / in life observation / body weight / offspring (pup) weight + systemic / in life observation / food consumption / food consumption

`O=[N+]([O-])C(Br)(CO)CO` [Bronopol] gave an NEL (rat [1]; group: offspring, systemic / in life observation / body weight / offspring (pup) weight) of 70 mg/kg/day, an LEL (rat [1]; [19]) of 200 mg/kg/day and an LOAEL (rat [1]; [19]) greater than 200 mg/kg/day. The NOAEL (rat [1]; [19]) was no less than 200 mg/kg/day, the LEL (rat [1]; [20]) was 25 mg/kg/day and the NEL (rat [1]; [20]) was less than 25 mg/kg/day. For the same compound, the LOAEL (rat [1]; [21]) was greater than 200 mg/kg/day, the NOAEL (rat [1]; [21]) was no less than 200 mg/kg/day and the LEL (rat [1]; [22]) was 200 mg/kg/day. The LOAEL (rat [1]; [22]) was greater than 200 mg/kg/day, the NEL (rat [1]; [22]) was 70 mg/kg/day and the NOAEL (rat [1]; [22]) was no less than 200 mg/kg/day. The LOAEL (rabbit [2]; systemic / in life observation / body weight / body weight + systemic / in life observation / food consumption / food consumption) was 40 mg/kg/day, the LEL (rabbit [2]; [23]) was 40 mg/kg/day and the NEL (rabbit [2]; [23]) was 10 mg/kg/day. The NOAEL (rabbit [2]; [23]) was 10 mg/kg/day, the LEL (dog [3]; [24]) was 4.1 mg/kg/day and the NEL (dog [3]; [24]) was less than 4.1 mg/kg/day. For the same compound, the LOAEL (dog [3]; [25]) was greater than 32.6 mg/kg/day, the NOAEL (dog [3]; [25]) was no less than 32.6 mg/kg/day and the LEL (rat [4]; [26]) was 10 mg/kg/day. For the same compound, the NEL (rat [4]; [26]) was less than 10 mg/kg/day, the LOAEL (rat [4]; systemic / in life observation / water consumption / water consumption + systemic / in life observation / body weight / body weight gain + …) was 40 mg/kg/day and the NOAEL (rat [4]; systemic / in life observation / water consumption / water consumption + systemic / pathology microscopic / stomach / squamous cell …) was 10 mg/kg/day. For the same compound, the LEL (rabbit [5]; [27]) was 80 mg/kg/day, the LOAEL (rabbit [5]; [27]) was 80 mg/kg/day and the NEL (rabbit [5]; [27]) was 40 mg/kg/day. For the same compound, the NOAEL (rabbit [5]; [27]) was 40 mg/kg/day, the LEL (rabbit [5]; [28]) was 80 mg/kg/day and the LOAEL (rabbit [5]; [28]) was 80 mg/kg/day. It also gave an NEL (rabbit [5]; [28]) of 40 mg/kg/day, an NOAEL (rabbit [5]; [28]) of 40 mg/kg/day and an LEL (rat [6]; [29]) of 150 mg/kg/day. It also gave an LOAEL (rat [6]; [29]) of 150 mg/kg/day, an NEL (rat [6]; [29]) of 50 mg/kg/day and an NOAEL (rat [6]; [29]) of 50 mg/kg/day. For the same compound, the LEL (rat [6]; [30]) was 50 mg/kg/day, the LOAEL (rat [6]; [30]) was 50 mg/kg/day and the NEL (rat [6]; [30]) was 10 mg/kg/day. It also gave an NOAEL (rat [6]; [30]) of 10 mg/kg/day, an NEL (rat [6]; [31]) of 50 mg/kg/day and an NOAEL (rat [6]; [31]) of 50 mg/kg/day. For the same compound, the LEL (rat [6]; [32]) was 150 mg/kg/day and the LOAEL (rat [6]; [32]) was 150 mg/kg/day.
Work on `CC1(c2ccc(Oc3ccccc3)cc2)OC(=O)N(Nc2ccccc2)C1=O` (stereo not given) [Famoxadone] yielded an LOAEL (rat [7]; systemic / hematology / anemia / anemia - hemolytic + systemic / in life observation / body weight / body weight gain) of 10.7 mg/kg/day, an LEL (rat [7]; [33]) of 10.7 mg/kg/day and an NEL (rat [7]; [33]) of 2.15 mg/kg/day. For the same compound, the NOAEL (rat [7]; [33]) was 2.15 mg/kg/day, the LEL (mouse [8]; systemic / organ weight / liver / absolute + systemic / organ weight / liver / relative to body weight) was 95.6 mg/kg/day and the LOAEL (mouse [8]; [34]) was 274 mg/kg/day. For the same compound, the NEL (mouse [8]; [34]) was 6.78 mg/kg/day, the NOAEL (mouse [8]; [34]) was 95.6 mg/kg/day and the LEL (rat [9]; [35]) was 3.34 mg/kg/day. It also gave an NEL (rat [9]; [35]) of less than 3.34 mg/kg/day, an LOAEL (rat [9]; [36]) of 13 mg/kg/day and an NOAEL (rat [9]; [36]) of 3.34 mg/kg/day. The LEL (dog [10]) was 8.8 mg/kg/day, the LOAEL (dog [10]) was 8.8 mg/kg/day and the NEL (dog [10]) was 1.2 mg/kg/day. The NOAEL (dog [10]) was 1.2 mg/kg/day, the LEL (dog [11]; [37]) was 1.4 mg/kg/day and the NEL (dog [11]; [37]) was less than 1.4 mg/kg/day. It also gave an LOAEL (dog [11]; systemic / pathology microscopic / eye / cataract + systemic / pathology microscopic / eye / cataract, cortical) of 10 mg/kg/day, an NOAEL (dog [11]; systemic / pathology microscopic / eye / cataract + systemic / pathology microscopic / eye / cataract, cortical + systemic / clinical …) of 1.3 mg/kg/day and an LOAEL (rat [12]; group: offspring, systemic / in life observation / body weight / litter weight) of 53.3 mg/kg/day. For the same compound, the LEL (rat [12]; [38]) was 53.3 mg/kg/day, the NEL (rat [12]; [38]) was 14.2 mg/kg/day and the NOAEL (rat [12]; [38]) was 14.2 mg/kg/day. The LEL (rat [12]; [39]) was 1.45 mg/kg/day, the NEL (rat [12]; [39]) was less than 1.45 mg/kg/day and the LOAEL (rat [12]; [40]) was 44.7 mg/kg/day. For the same compound, the NOAEL (rat [12]; [40]) was 11.3 mg/kg/day, the LEL (mouse [13]; [41]) was 5.89 mg/kg/day and the NEL (mouse [13]; [41]) was less than 5.89 mg/kg/day. The NOAEL (mouse [13]; systemic / organ weight / liver / absolute + systemic / organ weight / liver / relative to body weight + systemic / clinical chemistry / …) was 62.4 mg/kg/day and the LOAEL (mouse [13]; systemic / organ weight / liver / absolute + systemic / organ weight / liver / relative to body weight + systemic / hematology / anemia / …) was 534 mg/kg/day.
Work on `N#CCNC(=O)c1cnccc1C(F)(F)F` [Flonicamid] yielded an LEL (rat [14]; [42]) of 500 mg/kg/day, an LOAEL (rat [14]; [42]) of 500 mg/kg/day and an NEL (rat [14]; [42]) of 100 mg/kg/day. The NOAEL (rat [14]; [42]) was 100 mg/kg/day, the LEL (rat [14]; [43]) was 500 mg/kg/day and the LOAEL (rat [14]; [43]) was 500 mg/kg/day. For the same compound, the NEL (rat [14]; [43]) was 100 mg/kg/day, the NOAEL (rat [14]; [43]) was 100 mg/kg/day and the LEL (rat [15]; [44]) was 12.1 mg/kg/day. It also gave an LOAEL (rat [15]; [44]) of 60 mg/kg/day, an NEL (rat [15]; [45]) of 3.08 mg/kg/day and an NOAEL (rat [15]; [45]) of 12.1 mg/kg/day. The LEL (dog [16]; [46]) was 20 mg/kg/day, the LOAEL (dog [16]; [46]) was 20 mg/kg/day and the NOAEL (dog [16]; [46]) was 8 mg/kg/day. The NEL (dog [16]; systemic / in life observation / clinical signs / ataxia + systemic / in life observation / clinical signs / defecation (diarrhea) + …) was 8 mg/kg/day, the LEL (rat [17]; [47]) was 7.47 mg/kg/day and the NEL (rat [17]; [47]) was 3.61 mg/kg/day. It also gave an NOAEL (rat [17]; [47]) of 7.47 mg/kg/day and an LOAEL (rat [17]; [44]) of 36.5 mg/kg/day.
For `CCCCCCCCCc1ccc(OP(Oc2ccc(CCCCCCCCC)cc2)Oc2ccc(CCCCCCCCC)cc2)cc1` [Phenol, nonyl-, phosphite (3:1)], the LOAEL (rat [18]; [48]) was greater than 500 mg/kg/day, the NEL (rat [18]; [48]) was 50 mg/kg/day and the NOAEL (rat [18]; [48]) was no less than 500 mg/kg/day. It also gave an LEL (rat [18]; systemic / in life observation / food consumption / food consumption) of 167 mg/kg/day.
